From PubChem BioAssay AID1508612

Assay: passive permeability, PAMPA, ADME assay (AID 1508612)
Conditions: pH 7.4, 30.0 min, 50.0 µM

Row | SMILES | Papp [×10⁻⁶ cm/s]
1 | CN(C)c1cccc(-c2nnc(N3CCC(C(N)=O)CC3)s2)c1 | 119
2 | Cc1cnc(-c2ccccc2C2COC2)nc1NCc1ccc(-n2ccnn2)cc1 | < 1
3 | CCOc1ccc(CCNC(=O)c2cc3sccc3n2C)cc1OCC | > 1000
4 | COc1c(O)ccc2c1CN1CCc3cc4c(cc3[C@@H]1C2)OCO4 | > 1000
5 | O=C(Nc1nc(-c2ccccc2)cs1)c1ccncc1NS(=O)(=O)c1ccccc1Cl | > 1000
6 | Nc1ccc(S(=O)(=O)Nc2cnccc2C(=O)Nc2nc(-c3ccccc3)cs2)cc1 | 101
7 | CCN(CC)S(=O)(=O)c1cccc(C(=O)Nc2ccc(C#N)cc2)c1 | > 1000
8 | COC(C)(C)CCn1nc(Nc2c(C)cccc2C)c2cnc(Nc3ccc(OCCN4CCCC4)c(F)c3)nc21 | > 1000
9 | COc1ccc(C(=O)NC2CCCc3c2[nH]c2c(Cl)cccc32)cc1OC (centres undefined) | 139
10 | COc1ccc(NC(=O)C2=C(C)NC(Nc3nc4ccccc4o3)=NC2c2ccccc2Br)cc1 (centres undefined) | 371
11 | N#Cc1ccccc1CSc1nc2ncc(Br)cc2[nH]1 | 415
12 | c1ccc2c(Nc3nccs3)nc(-c3ccncc3)nc2c1 | 150
13 | CC(=O)c1c(C)[nH]c(C(=O)Nc2cccc([S+](=O)([O-])Nc3cccnc3)c2)c1C | 16.5
14 | Cc1ccc(NS(=O)(=O)c2cc3c(cc2N[C@H](C)CO)NC(=O)CC3)cc1C | 273
15 | CCCCn1cnc2cc(NC(=O)c3cc(OC)c(OC)c(OC)c3)ccc21 | 693
16 | CCn1c(=O)cc(OCC(=O)N2CCN(c3cccc(Cl)c3)CC2)c2ccccc21 | 941
17 | COc1ccc(OC)c(-c2cc(C(=O)N3CCN(c4ncccn4)CC3)c3ccccc3n2)c1 | > 1000
18 | COc1cccc(-c2nc(-c3c(C)noc3C)cc3[nH]c(C)cc23)c1OC | > 1000
19 | CC(=O)c1c(C)[nH]c(C(=O)Nc2ccc(C)c(S(=O)(=O)N3CCCCCC3)c2)c1C | 792
20 | Cc1cnc(-c2ccccc2C(F)F)nc1NCc1ccc(-n2ccnn2)cc1 | > 1000
21 | CCOC(=O)c1cc(-c2ccco2)nc2c1c(C)nn2CCC#N | 989
22 | CN(C)c1cccc(-c2ccnc(N3CCC(C(N)=O)CC3)n2)c1 | 333
23 | COc1ncccc1-c1cc2[nH]ccc2c(C(=O)NCc2c(C)cc(C)[nH]c2=O)n1 | 472
24 | O=C(NCCCN1CCCC1=O)c1ccc(-c2ncc3cnc(-c4ccccc4)cn23)cc1 | 292
25 | CCC[C@@H]1CN(C(=O)c2ccc(-c3ccc(C)o3)cc2)C[C@H]1NC(C)=O | > 1000
26 | O=C(Nc1ccc(Cl)c(S(=O)(=O)N2CCOCC2)c1)c1ccc(S(=O)(=O)N2CCOCC2)cc1 | 936

Row | SMILES | Papp [×10⁻⁶ cm/s]
27 | NC(=O)C1CCN(c2nc(-c3cccc4sc5ccccc5c34)cs2)CC1 | 364
28 | Cc1ccc(OCCn2c(CCNC(=O)c3ccccc3Br)nc3ccccc32)cc1 | 993
29 | COc1ccc(NC(=O)c2cccnc2C)cc1S(=O)(=O)Nc1ccc(Br)cc1 | 522
30 | Cc1ccc(Nc2nc(-c3ccncc3)nc3ccccc23)cc1F | 15.5
31 | CCOC(=O)c1[nH]c(C)c(CCC(=O)N2CCN(c3cccc(C)c3C)CC2)c1C | > 1000
32 | O=C(NCC1CCOCC1)C1CC(=O)N(c2n[nH]c3cc(Br)ccc23)C1 (centres undefined) | 16.1
33 | CCCc1cc(=O)oc2c3c(c4c(c12)OC(C)(C)C=C4)OC(C)C(C)C3O (centres undefined) | > 1000
34 | C#CCNC(=O)c1nc(-c2ccc(Cl)nc2)c2ccccn12 | 802
35 | CC(=O)c1c(C)[nH]c(C(=O)Nc2cccc([S+](=O)([O-])Nc3ccccc3C)c2)c1C | 628
36 | Cc1ccc(-c2csc(NC(=O)c3ccccc3NS(=O)(=O)c3ccc(C)cc3)n2)cc1 | 35.6
37 | CCc1oc2ccccc2c1C(=O)c1cc(I)c(O)c(I)c1 | 67.7
38 | COc1cccc(CNc2ccc(S(=O)(=O)Nc3nccs3)cc2)c1O | 35.8
39 | NC(=O)C1CCN(c2nc(-c3ccc4occc(=O)c4c3)cs2)CC1 | 106
40 | Cc1ccc(S(=O)(=O)Nc2cnccc2C(=O)Nc2nc(C(=O)O)cs2)cc1 | < 1
41 | CC1=C[C@@H](CNC(C)C)[C@H](C(C)C)C[C@H]1Cc1nnc(-c2ccncc2)o1 | 649
42 | Cc1ccc2c(c1)N(S(=O)(=O)c1cc(-c3onc(C)c3C)ccc1C)CCO2 | 664
43 | O=c1[nH]c(N2CCOCC2)nc2c1CCN(Cc1cc(Cl)ccc1F)CC2 | > 1000
44 | NC(=O)C1CCN(c2nc(-c3ccc(Cl)cc3)cs2)CC1 | 191
45 | CCOC(=O)c1ccc(N2C(=O)c3n[nH]c(-c4cccs4)c3C2c2ccc(Cl)cc2Cl)cc1 (centres undefined) | 85.8
46 | Cc1cc(-c2nnc3n2CCCCC3)c(C)n1-c1ccc(Br)cc1 | > 1000
47 | COc1cc2nccc(Oc3ccc(NC(=O)Nc4cc(C)on4)c(Cl)c3)c2cc1OC | 328
48 | Cc1ccc(S(=O)(=O)Nc2cnccc2C(=O)Nc2ccc(C#N)cc2)cc1 | 69.6
49 | CC(=O)NC1CCN(c2nc(-c3ccc(Br)cc3)cs2)CC1 | 789
50 | CC[C@H]1C=CC=CC[C@@H](C)[C@H](O)[C@@](C)(O)C(=O)[C@@H](C)[C@H](O)[C@@H](C)C(=O)[C@@H](C)[C@H](O)[C@@H](C)C=CC(=O)O[C@@H]2[C@@H](C)[C@H](CC1)O[C@]1(CC[C@H](C)[C@H](C[C@@H](C)O)O1)[C@H]2C | < 1
51 | NC1CCN(C(=O)C2CCCN(c3nc(-c4ccccc4)nc4c3CCC4)C2)CC1 (centres undefined) | 475
52 | COc1ccc(-n2c(C)c(C(C)=O)c3ccccc32)cc1 | > 1000

Row | SMILES | Papp [×10⁻⁶ cm/s]
53 | Cc1ccc(-c2cc(C(=O)Nc3cccc(S(=O)(=O)Nc4nccs4)c3)c3ccccc3n2)cc1C | 22.3
54 | Cc1ccc(-c2cc(C(=O)Nc3ccc(S(=O)(=O)N(C)Cc4nccs4)cc3)c3ccccc3n2)cc1C | < 1
55 | Cc1ccc(Cl)cc1NS(=O)(=O)c1cc2c(cc1F)NC(=O)CC2 | 581
56 | CCCCCn1c(=O)[nH]c2cc(C(=O)NCCCN3CCCCC3)ccc2c1=O | 27.5
57 | Cn1nnnc1Sc1ncnc2sccc12 | 67.6
58 | Cc1cnc(NC(=O)c2ccc(-c3cccc([N+](=O)[O-])c3)o2)s1 | 47.9
59 | COc1ccc(-n2c(C)c(C(C)=O)c3cc(O)ccc32)cc1 | 415
60 | CC(C)=CCNc1ncnc2nc[nH]c12 | 54.1
61 | CN(C)c1cc(-c2nc(Nc3ccc(F)c(F)c3)c3ccccc3n2)ccn1 | > 1000
62 | COc1ccc(-n2nc(C3CCCN(CC4CCCCC4)C3)[nH]c2=O)cc1 (centres undefined) | > 1000
63 | COc1cccc(CNc2ccc(S(=O)(=O)Nc3ccccn3)cc2)c1O | 586
64 | CCN1CCN(c2ccc3cc(S(=O)(=O)N4CCOCC4)ccc3n2)CC1 | > 1000
65 | Cc1cc(C)nc(NC(=S)N2CCN(c3ccncc3)CC2)c1 | 450
66 | NC1(c2ccccc2Cl)CCCCC1=O (centres undefined) | 62
67 | Cc1cc(C)cc(C(=O)Nc2ccc3c(N4CCCC4)ncnc3c2)c1 | > 1000
68 | COc1cc(=O)n2c(c1C(=O)N(C)Cc1cscn1)CCN(C(=O)c1ccc(C)cc1C)CC2 | 9.91
69 | COc1cccc(NC(=O)c2cccc3c(=O)c4c([nH]c23)CCCC4)c1 | > 1000
70 | Cc1ccc2oc3c(c(=O)c2c1)C(c1ccc(O)cc1)N(CCCN(C)C)C3=O (centres undefined) | < 1
71 | CCOc1cc(=O)n2c(c1C(=O)Nc1cc(OC)c(Cl)cc1OC)CCCC2 | 96.6
72 | Cc1nnc(N2C(=O)c3oc4ccccc4c(=O)c3C2c2ccc(F)cc2)s1 (centres undefined) | 314
73 | Cc1ccc(NC(=O)c2cc(-c3ccc[nH]3)n[nH]2)cc1F | 157
74 | CC1=C(C(=O)Nc2nncs2)C(c2[nH]ncc2Cl)N=C(Nc2nc3ccccc3o2)N1 (centres undefined) | 37
75 | Cc1ccc(NC(=O)c2ccncc2NS(=O)(=O)c2ccc(C)cc2)cc1 | 245
76 | O=C(NC1CCCN(c2cc(-c3ccc(F)cc3)[nH]n2)C1)c1ccc2ncccc2c1 (centres undefined) | 61.8
77 | O=C(Nc1nc2cc(C(F)(F)F)cc(NC3CC3)n2n1)c1cccnc1 | 197
78 | Cc1ccccc1-c1nc(NCc2ccc(-c3cccnc3)cc2)c2ccccc2n1 | 547

Row | SMILES | Papp [×10⁻⁶ cm/s]
79 | Cc1ncc2c(c1CNC(=O)Cn1cnc3ccccc3c1=O)CCNC2 | 59.6
80 | O=C(NC1CC1)C1CCCN1C(=O)c1cccc(-c2ccccn2)c1 (centres undefined) | 11
81 | COc1ccc(Nc2nnc(-c3ccc(C)c(S(=O)(=O)NCc4nc5ccccc5[nH]4)c3)c3ccccc23)cc1 | 11.9
82 | O=C(Nc1cncc(Cc2ccccc2)c1)c1ccc(-c2cccc([N+](=O)[O-])c2)o1 | > 1000
83 | NC(=O)C1CCN(c2ncc(Br)cn2)CC1 | 61.5
84 | Cc1ccc(-c2cc(C(=O)Nc3ccc(S(=O)(=O)Nc4ccc(C#N)cc4)cc3)c3ccccc3n2)cc1C | < 1
85 | CCN(CC)C(=O)c1ccc2c(c1)ncn2-c1cccc(C)c1 | 889
86 | COc1ccc(NS(=O)(=O)c2ccc(C)c(C(=O)Nc3ccc4oc(C)nc4c3)c2)cc1 | 737
87 | Cc1noc(C)c1-c1ccc(-c2cc(C(N)=O)c(NC(N)=O)s2)c(O[C@H]2CCNC2)c1 | < 1
88 | O=[S+]([O-])(Nc1ccc(N2CCNCC2)cc1)c1ccc(NCc2cccc(Cl)c2O)cc1 | 7.65
89 | Cc1cc(C)nc(NC(=S)N2CCN(c3ccc(F)cc3F)CC2)c1 | > 1000
90 | CC(=O)c1c(C)c(C(=O)Nc2cccc([S+](=O)([O-])N(C)C)c2)n(C)c1C | 295
91 | O=c1cc(/C=C/c2c(F)cccc2Cl)[nH]c2ccccc12 | 205
92 | CCOc1ccc(CNC(=O)CCCn2nc(C)c3c(C)n(-c4ccc(C)cc4)nc3c2=O)cc1 | 843
93 | O=S(=O)(Nc1nccs1)c1ccc(NCc2cccc(Br)c2O)cc1 | 72.7
94 | C[C@]12N[C@H](Cc3ccccc31)c1ccccc12 | > 1000
95 | Cc1ccc(C)c(CN2CCC(CNC(=O)Nc3ccc(Br)cc3F)CC2)c1 | > 1000
96 | COCc1cc(C)nc(SCC(=O)c2ccc(O)c(O)c2)c1C#N | 118
97 | COc1ccccc1N1CCN(C2CCCCC2NS(=O)(=O)c2ccccc2)CC1 (centres undefined) | > 1000
98 | Cc1ccccc1C(=O)N1CCc2cc(-c3nc(NC(=O)Cc4ccc5ccccc5c4)sc3C)ccc21 | < 1
99 | C=C1c2cccc(O)c2C(O)=C2C(=O)[C@]3(O)C(O)=C(C(N)=O)C(=O)[C@@H](N(C)C)[C@@H]3[C@@H](O)[C@H]12 | < 1
100 | CCOC(=O)N1CCc2c(sc(NCc3sccc3C)c2C(=O)Nc2cc(Cl)ccc2OC)C1 | < 1
101 | COCCn1ccc2c(C3=CCOCC3)nc(-c3ccc4c(c3)CNC4=O)cc21 | 71.7
102 | O=C(c1ccc2ccccc2c1)N1CCN(c2ccc(O)cc2)CC1 | 527
103 | CCCc1nnc(NC(=O)c2nc(S(=O)(=O)Cc3ccc(C)cc3)ncc2Cl)s1 | 89.4
104 | Cc1cnccc1-c1nc(Nc2ccc(F)c(F)c2)c2ccccc2n1 | 31.1
